Paper PMC5103216, “Novel Agonist Bioisosteres and Common Structure-Activity Relationships for The Orphan G Protein-Coupled Receptor GPR139” (Scientific Reports, 2016)
Entries after “also recorded” stand apart in the source; their conditions may differ. Where two headings read alike, the source gives them in different places.

Key:
[1] = molecular target: T1, GPR139 (Homo sapiens, UniProt Q6DWJ6); parameters: method as in ref 11 (Shi et al.); conditions: ref 11 (Shi et al.), cited from earlier work; for EC50: GPR139 agonist potency
T1 sequence (Q6DWJ6 1-353): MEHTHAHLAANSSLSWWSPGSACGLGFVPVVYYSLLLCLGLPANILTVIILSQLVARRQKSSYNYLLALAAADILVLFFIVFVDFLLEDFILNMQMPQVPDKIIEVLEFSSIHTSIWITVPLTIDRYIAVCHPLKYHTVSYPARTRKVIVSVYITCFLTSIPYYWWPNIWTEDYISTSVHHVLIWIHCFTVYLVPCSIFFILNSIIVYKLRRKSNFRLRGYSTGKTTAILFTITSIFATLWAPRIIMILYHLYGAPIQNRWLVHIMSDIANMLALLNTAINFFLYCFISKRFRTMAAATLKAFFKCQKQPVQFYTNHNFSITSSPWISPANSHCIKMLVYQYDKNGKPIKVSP

[2] = molecular target: T1, GPR139; parameters: method as in ref 13, 14 (Dvorak et al.); conditions: relative to L-Trp; 14 (Dvorak et al.); cited from earlier work
[3] = molecular target: T1, GPR139; experiment: Fluo-4 Ca2+-assay in CHO-k1 cells stably expressing GPR139 (CHO-GPR139); format: cell-based; conditions: for Emax: CHO-K1, relative to 1a
Protocol: Compound 1a[11] was kindly provided by H. Lundbeck A/S, Denmark. Compound 7c (Enamine no: Z31449867) was tested as a racemate, as the (S)-form described by Janssen et al. was not commercially available. All compounds were dissolved to 20 mM in DMSO (Sigma, D2650) and subsequently diluted in a HEPES buffer (HBSS (Invitrogen, 14025) supplemented with 20 mM HEPES + 1 mM MgCl2 + 1 mM CaCl2, pH = 7.4) to a final concentration 0.5% DMSO in the assay. The DMSO level was kept constant for all concentrations of all compounds. DMSO was confirmed not to have any activity by itself at this concentration. L-Tryptophan (T0254) and L-Phenylalanine (P2126) were obtained from Sigma-Aldrich and dissolved directly in buffer.
All compounds were tested on a CHO-k1 cell line stably expressing GPR139 (CHO-GPR139) kindly provided by H. Lundbeck A/S, Denmark, and also on a CHO-k1 cell line stably expressing the M1 receptor (CHO-M1) (The Missouri S&T cDNA Resource Center, #CEM100TN00) to check for specificity. The CHO-GPR139 was grown in Dulbecco’s modified eagle medium (DMEM) F12-Kaighn’s (Gibco, 21127) supplemented with 10% dialysed fetal bovine serum (Gibco, 26400, United States origin), 1% GlutaMAX^TM-I (100X) (Gibco, 35050), and 100 units/mL penicillin and 100 μg/mL streptomycin (Gibco, 15140) and 1.0 mg/mL geneticin (Invitrogen, 1181103). CHO-M1 was grown in Ham’s F12 (Gibco, 21765) supplemented with 10% fetal bovine serum (Gibco, 10270, South America origin) +100 units/mL penicillin and 100 μg/mL streptomycin (Invitrogen, 15140–122) and 0,25 mg/mL geneticin (Life Technologies, 11811–031). Compound 1a and carbamoylcholine chloride (Sigma-Aldrich, C4382) were used as positive controls in the two cell lines, respectively.
30.000 cells/well were plated in black 96-well plates with flat clear bottoms (Corning, Falcon, 353219) and incubated overnight. The Fluo-4 dye loading solution (Invitrogen, F36206) was prepared according to the manufacturer’s instructions by dissolving it in HEPES buffer supplemented with 2.5 mM probenecid. 50 μL dye loading solution was added to each well. Cells were incubated with the Fluo-4 dye for 60 min at 37 °C, then washed with 100 μL HEPES buffer. 100 μL HEPES buffer supplemented with 2.5 mM probenecid was then added to each well and incubated in 10 minutes at 37 °C before measurement. 33 μL of the test compounds (4x concentrated) were added automatically after baseline measurements. Intracellular calcium change was recorded on a NOVOstar instrument (BMG Labtech) at 37 °C with an excitation filter of 485 nm and an emission filters 520 nm. Data originate from three independent experiments in triplicates.

[4] = CHO-GPR139, mean of at least three experiments

O=C(NNC(=O)c1ccccc1)Nc1cccc2ccccc12 [1b]
EC50 [1]: 2400 nM | Emax [1]: 85%

CCOc1ccccc1C(=O)NNC(=O)Nc1cccc2ccccc12 [1d]
Emax [1]: 53%

CCc1cc(CC)cc(C(=O)NNC(=O)Nc2cccc3ccccc23)c1 [1e]
Emax [1]: 6%

O=C(NNC(=O)c1ccc(F)cc1)Nc1cccc2ccccc12 [1g]
EC50 [1]: 440 nM | Emax [1]: 96%

COc1cc(C(=O)NNC(=O)Nc2cccc3ccccc23)cc(OC)c1OC [1h]
EC50 [1]: 63 nM | Emax [1]: 76%

O=C(NNC(=O)c1ccc(Oc2ccccc2)cc1)Nc1cccc2ccccc12 [1i]
EC50 [1]: 2100 nM | Emax [1]: 61%

COc1cc(OC)cc(C(=O)NNC(=O)Nc2ccc(Br)c3ccccc23)c1 [1j]
Emax [1]: 73%

COc1cc(OC)cc(C(=O)NNC(=O)Nc2ccc(C#N)c3ccccc23)c1 [1k]
Emax [1]: 20%

COc1cc(OC)cc(C(=O)NNC(=O)Nc2c(C)ccc3ccccc23)c1 [1l]
EC50 [1]: 86 nM | Emax [1]: 86%

COc1cc(OC)cc(C(=O)NNC(=O)Nc2ccc(Cl)c3ccccc23)c1 [1m]
Emax [1]: 64%

COc1cc(OC)cc(C(=O)NNC(=O)Nc2cccc3c(Br)cccc23)c1 [1n]
Emax [1]: 54%

COc1cc(OC)cc(C(=O)NNC(=O)Nc2cccc3ccc(OC)cc23)c1 [1o]
Emax [1]: 50%

COc1cc(CNNC(=O)Nc2cccc3ccccc23)cc(OC)c1 [1p]
EC50 [1]: > 10000 nM

COc1cc(OC)cc(C(=O)CNC(=O)Nc2cccc3ccccc23)c1 [1q]
EC50 [1]: 3300 nM | Emax [1]: 100%

COc1cc(OC)cc(C(=O)NCC(=O)Nc2cccc3ccccc23)c1 [1r]
EC50 [1]: 180 nM | Emax [1]: 98%

COc1cc(OC)cc(C(=O)N(C)NC(=O)Cc2cccc3ccccc23)c1 [1t]
EC50 [1]: 2500 nM | Emax [1]: 74%

COc1cc(OC)cc(C(=O)NN(C)C(=O)Cc2cccc3ccccc23)c1 [1u]
EC50 [1]: 5100 nM | Emax [1]: 84%

C[C@H](NC(=O)CNC(=O)c1ccccc1)c1ccccc1 [7a]
Emax [2]: 130%

C[C@H](NC(=O)CNC(=O)c1ccc(Cl)cc1)c1ccccc1 [7d]
Emax [2]: 117%

Cc1cccc(C(=O)NCC(=O)N[C@@H](C)c2ccccc2)c1 [7e]
Emax [2]: 137%

C[C@H](NC(=O)CNC(=O)c1cccc(C#N)c1)c1ccccc1 [7f]
Emax [2]: 129%

C[C@H](NC(=O)CNC(=O)c1cccc(F)c1)c1ccccc1 [7g]
Emax [2]: 118%

COc1cccc(C(=O)NCC(=O)N[C@@H](C)c2ccccc2)c1 [7h]
Emax [2]: 146%

C[C@H](NC(=O)CNC(=O)c1cccc(C(F)(F)F)c1)c1ccccc1 [7i]
Emax [2]: 134%

C[C@H](NC(=O)CNC(=O)c1cccc(OC(F)(F)F)c1)c1ccccc1 [7j]
Emax [2]: 129%

C[C@H](NC(=O)CNC(=O)c1cccc(Cl)c1Cl)c1ccccc1 [7k]
Emax [2]: 113%

C[C@H](NC(=O)CNC(=O)c1ccc(Cl)c(Cl)c1)c1ccccc1 [7l]
Emax [2]: 106%

C[C@H](NC(=O)CNC(=O)c1cc(Cl)ccc1Cl)c1ccccc1 [7m]
Emax [2]: 139%

CCN1C(C)=NC2C=C(C(=O)NNC(=O)c3c(-c4ccccc4)noc3C)C=CC21 (stereo not drawn) [DL83]
EC50 ([3]; values in text): > 10000 nM

CCn1c(C)nc2cc(C(=O)NNC(=O)Cc3coc4ccc5ccccc5c34)ccc21 [DL85]
EC50 [3, 4]: 1020 nM | Emax [3]: 95% | EC50 ([3]; values in text): 1020 nM

COc1cc(OC)cc(C(=O)NNC(=O)c2cccc3ccccc23)c1 [DL96]
GPR139 agonist activity (in words) ([3]; CHO-GPR139): loss of activity; also recorded: Inactive

CN(C(=O)CNC(=O)c1ccc2c(c1)OCO2)C1CCc2ccccc21 (stereo not drawn) [DL131]
EC50 [3, 4]: 1090 nM | Emax [3]: 101%

O=C(CN1CCCc2ccccc21)NNC(=O)c1ccc2[nH]cnc2c1 [DL144]
EC50 [3, 4]: 1160 nM | Emax [3]: 96%

CCn1c(C)nc2cc(C(=O)NNC(=O)CC(C)c3ccccc3)ccc21 (stereo not drawn) [DL146]
EC50 [3, 4]: 4720 nM | Emax [3]: 85% | EC50 ([3]; values in Figure 5 and Supplementary Chart 1): 4710 nM

C=C(C)c1cccc(C(C)(C)NC(=O)NNC(=O)c2ccc3c(c2)nc(C)n3CC)c1 [DL148]
EC50 [3, 4]: 1220 nM | Emax [3]: 100%

COc1cc(OC)cc(C(=O)NCCC(=O)N2CCCc3ccccc32)c1 [DL154]
EC50 [3, 4]: 1500 nM | Emax [3]: 91%
